Patent US7414134B2, “B1 bradykinin receptor antagonists” (Amgen Inc., priority 2004, dated 2008)
pIC50: −log10 of the molar value. Ends that are not written are not given here.

Key:
[1] = target: T1, hB1 receptor (Homo sapiens, UniProt P46663); test: In vitro assay of human B1 receptor function using calcium flux (aequorin); assay type: cell-based; conditions: CHO D-/hB1/Aequorin cells, agonist 20 nM des-Arg10-Kallidin (EC80); read-out: binding IC50's to hB1 receptor function
T1 construct: expressed in transfected cells; host or cells: CHO D- cells stably expressing hB1 and aequorin
T1 sequence (P46663 1-353): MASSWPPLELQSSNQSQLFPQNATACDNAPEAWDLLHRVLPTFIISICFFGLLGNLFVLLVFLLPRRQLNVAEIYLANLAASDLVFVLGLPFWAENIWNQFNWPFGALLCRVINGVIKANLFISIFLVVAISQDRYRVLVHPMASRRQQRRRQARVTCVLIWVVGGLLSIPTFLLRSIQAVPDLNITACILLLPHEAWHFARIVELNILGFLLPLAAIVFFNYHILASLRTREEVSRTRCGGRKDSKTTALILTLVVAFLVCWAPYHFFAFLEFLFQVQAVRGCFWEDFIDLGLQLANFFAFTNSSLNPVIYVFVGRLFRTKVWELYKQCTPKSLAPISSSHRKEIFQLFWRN
Text: Activation of the Gq linked B1 receptor results in an increase in intracellular calcium. The calcium sensitive photoprotein aequorin can, therefore, be used as an indicator of B1 receptor activation. Aequorin is a 21-kDa photoprotein that forms a bioluminescent complex when linked to the chromophore cofactor coelenterazine. Following the binding of calcium to this complex, an oxidation reaction of coelenterazine results in the production of apoaequorin, coelenteramide, CO2, and light that can be detected by conventional luminometry.
A stable CHO D-/hB1/Aequorin cell line was established and the cells were maintained in suspension in spinner bottles containing a 1:1 ratio of DMEM and HAM F12 (Gibco 11765-047), high glucose (Gibco 11965-084), 10% Heat Inactivated Dialyzed serum (Gibco 26300-061), 1× Non-Essential Amino Acids (Gibco 11140-050), 1× Glutamine-Pen-Strep (Gibco 10378-016), and Hygromycin, 300 μg/mL (Roche 843555). […]
Media was removed from the wells and replaced with 60 μL of serum free HAM's F12 with 30 mM HEPES (pH 7.5) and 15 μM coelenterazine (Coelenterazine h Luciferin #90608 from Assay Designs). […] The hB1 agonist, des-Arg10-Kallidin, was added to the cell plate and another 12 images were recorded to determine the IC50 of the antagonist(s).

[2] = cited from earlier work

Compound	pIC50 [1]	half-life of BK in plasma [2]
Cc1ccc(S(=O)(=O)N[C@H](Cc2cn([C@@H]3CCOc4cc(CN5CCC(F)CC5)ccc43)nn2)C(N)=O)cc1 [Example 7, (R)-3-(1-((R)-7-((4-fluoropiperidin-1-yl)methyl)-3,4-dihydro-2H-chromen-4-yl)-1H-1,2,3-triazol-4-yl)-2-(4-methylphenylsulfonamido)propanamide]	> 6.00	
RPPGFSPFR [BK, Bradykinin]		approximately 17 seconds
